Measured values reported in publication PMC7096397, “Improving the drug-likeness of inspiring natural products - evaluation of the antiparasitic activity against Trypanosoma cruzi through semi-synthetic and simplified analogues of licarin A” (Scientific Reports, 2020).
Entries after “also recorded” stand apart in the source; their conditions may differ. Where two headings read alike, the source gives them in different places.

Legend:
T. cruzi trypomastigotes [1] = assay: Plasma membrane permeability, Sytox Green probe; format: cell-based, Trypanosoma cruzi; conditions: at IC50, up to 120 min, vs untreated parasites
Experimental: The action of compounds 1d, 1e, 3d and 4a in the cell membrane permeability were evaluated in T. cruzi trypomastigotes (2 × 10^6/well) seeded in 96-well black polystyrene microplates. Parasites were washed and incubated in the dark with 1 μM SYTOX Green probe (Molecular Probes) in HANKS’ balanced salts solution (HBSS; Sigma-Aldrich) supplemented with 10 mM D-Glucose (HBSS + Glu) in 96-well black polystyrene microplates[43],[44]. […] The maximum permeabilization was obtained with the addiction of 0.5% Triton X-100. Fluorescence intensities were determined using a fluorimetric microplate reader (FilterMax F5 Multi-Mode Microplate Reader-Molecular Devices) with excitation and emission wavelengths of 485 and 520 nm, respectively. The following internal controls were used in the evaluation: i) the background fluorescence of the compound at the respective wavelengths, ii) the possible interference of DMSO.

T. cruzi trypomastigotes [2] = assay: ATP generation (luciferin/luciferase); format: cell-based, Trypanosoma cruzi; conditions: at IC50, 2 h of incubation
Experimental: Untreated parasites and treated with the mitochondrial uncoupler CCCP (carbonyl cyanide m-chlorophenylhydrazone - Sigma) at 100 µM, were used as positive and negative controls, respectively. […] Luminescence intensity was measured using a luminometer (FilterMax F5 Multi-Mode, Molecular Devices) and the amount of ATP was calculated from an ATP standard curve.

PAMPA-BBB model = format: in vitro ADME
Experimental: The methodology herein applied was similar to that described in the previous section, however with the purpose of assessing the permeability of the compounds through the blood brain barrier (BBB). Thus, stock solutions (10 mM) of each test compound were prepared in DMSO and diluted with phosphate buffered saline (PBS) at pH 7.4. The final concentration of donor solutions was 300 μM and DMSO of 5%. Artificial membrane lipid solutions were prepared daily by dissolving, in n-dodecane, the porcine brain lipid extracted as described[40] at the final concentration of 2% (m/v). PAMPA procedure was similar to that described in the previous section although, in PAMPA-BBB, the donor and acceptor solutions were prepared using phosphate buffer saline (PBS) at pH 7.4 and the Papp was obtained through the equation previously reported.

[3] = Cytotoxicity against mammalian cells (MTT); format: cell-based, Murine; conditions: mouse, NCTC clone L929 cells
Experimental: Rhesus monkey kidney cells (LLC-MK2-ATCC CCL 7) were used for the maintenance of trypomastigotes of T. cruzi (Y strain) using RPMI-1640 medium supplemented with 2% fetal bovine serum (FBS). The cells and parasites were kept at 37 °C in a humidified atmosphere containing 5% CO2. Peritoneal macrophages, used in the experiments of anti-amastigote assay, were obtained by washing the peritoneal cavity of BALB/c mice, with RPMI-1640 medium supplemented with 10% FBS and kept at 37 °C in a 5% CO2 humidified incubator. Murine conjunctive cells (NCTC clone 929, ATCC) and LLC-MK2 were kept in RPMI-1640 supplemented with 10% FBS at the same conditions described above.
NCTC cells-clone L929 (6 × 10^4 cells/well) were seeded and incubated with tested compounds (200–1.56 µM) for 48 h at 37 °C in a 5% CO2 humidified incubator. Cytotoxic concentration (CC50) was determined by MTT assay. Optical density was determined in FilterMax F5 (Molecular Devices) at 570 nm. Selectivity Index (SI) was determined using the following ratio: CC50 against NCTC cells/IC50 against parasites.
(§1) IC50 and CC50 values were calculated using a sigmoid dose-response curves in Graph–Pad Prism 5.0 software (GraphPad Software - San Diego, CA, USA). For the mechanism of action studies one-way ANOVA (Turkey’s Multiple Comparison test) was used for significance (p < 0.05). The assays were repeated at least twice and the samples were tested in duplicate.

[4] = PAMPA intestinal model (GIT); format: in vitro ADME
Experimental: Intestinal permeability of tested compounds was estimated applying the PAMPA model previously developed and validated. Briefly, stock solutions were prepared in dimethyl sulfoxide (DMSO) at the concentrations of 10 mM and then diluted with Tris buffer to give the final concentration donor solution at 300 µM and 5% DMSO. The assay procedure was initiated by filling each well of the microtiter plate (MultiScreen, catalogue no. MATRNPS50, Millipore Corporation, Bedford, MA, USA) with 300 μL of each donor drug solution. Carefully, and avoiding the pipette tip contact with the filter, the hydrophobic filter (0.45 μm) of each acceptor well of the 96-well microfilter plate (MultiScreen-IP, catalogue no. MAIPNTR10, Millipore Corporation, Bedford, MA, USA) was adsorbed with 6 μL of the artificial lipid solution which was composed of 2% of L-α-phosphatidylcholine from soybean dissolved, by sonication, in n-dodecane. Immediately after this application, 150 μL of Tris buffer containing 5% DMSO was added to the receiving well. The receiving well was mounted on the donor plate, keeping the underside of the membrane in contact with the donor solution. The assembled donor–acceptor plates were incubated under constant stirring (3 g) at 25 °C for approximately 16 h. Subsequently, the quantity of each compound presented at the receptor solution (150 μL) was determined by UV/VIS spectrophotometrically.

T. cruzi trypomastigotes [5] = assay: Mitochondrial membrane potential, JC-1 flow cytometry; format: cell-based, Trypanosoma cruzi; conditions: at IC50, 2 h
Experimental: The ΔΨm were analyzed by flow cytometry (Attune NxT flow cytometer - ThermoFisher) with the probe 5,5′,6,6′-tetrachloro-1,1′,3,3′-tetraethylbenzimidazole carbocyanide iodide (JC-1, ThermoFisher). The ratio between red/green fluorescence intensities (BL-2/BL-1; 590 nm/530 nm) were calculated[45],[46]. […] The parasites were incubated in the dark for 10 min at 37 °C and washed in HBSS + Glu to eliminate the non-internalized dye. As internal controls of the assay were used: (i) non-treated cells and (ii) trypomastigotes treated with 100 μM CCCP.

[6] = system: T. cruzi intracellular amastigotes; assay: Anti-amastigote assay in infected peritoneal macrophages (infection index); format: cell-based, Trypanosoma cruzi; conditions: Trypanosoma cruzi, Peritoneal macrophage, in Mus musculus, 48 h, read-out: IC50 Ama
Experimental: (§2) The cells and parasites were kept at 37 °C in a humidified atmosphere containing 5% CO2.
The cells were plated on a 16-well chamber slide – NUNC (Thermo Fisher Scientific) at 1 × 10^5 cells/well and incubated for 24 h at 37 °C in a 5% CO2 humidified incubator. […] Tested compounds were subsequently incubated with infected macrophages for 48 h at 37 °C (5% CO2 humidified incubator) in different nontoxic concentrations. Benznidazole was used as standard drug. At the end of the assay, slides were fixed with MeOH and stained with Giemsa, counted under a light microscope (EVOS M5000, Thermo, USA) and IC50 values were determined by the infection index.
as §1

[7] = system: T. cruzi (Y strain) trypomastigotes; assay: Anti-trypomastigote assay (resazurin viability); format: cell-based, Trypanosoma cruzi; conditions: Trypanosoma cruzi, read-out: IC50 trypo
Experimental: as §2
Benznidazole was used as the standard drug. The optical density was determined in FilterMax F5 (Molecular Devices) at 570 nm[38].
as §1

T. cruzi trypomastigotes [8] = assay: Reactive oxygen species (ROS) generation, H2DCFDA probe; format: cell-based, Trypanosoma cruzi; conditions: for ROS generation: at IC50, 1 h of treatment; for ROS levels: at IC50, 2 h of treatment
Experimental: After, H2DCFDA probe (Molecular Probes) was added (5 µM) and incubated by 15 min[44]. The fluorescence intensity was measure using a fluorimetric microplate reader (FilterMax F5 Multi-Mode, Molecular Devices) with excitation and emission wavelengths of 485 and 520 nm, respectively. Azide (10 mM) was used as positive control and untreated parasites were used as negative control.

[9] = PAMPA intestinal model (GIT); format: in vitro ADME; conditions: read-out: plasma protein binding percentage
[10] = intracellular amastigotes in BALB/c peritoneal macrophages
[11] = T. cruzi trypomastigotes, 24 h incubation, resazurin
[12] = PAMPA-BBB model, 300 µM donor, PBS pH 7.4, read-out: Papp BBB
[13] = PAMPA intestinal model, 300 µM donor, Tris buffer, 25 °C, 16 h, read-out: Papp GIT

| SMILES | Sytox Green fluorescence levels (plasma membrane permeability) (T. cruzi trypomastigotes [1]) | ATP levels (T. cruzi trypomastigotes [2]) | Papp at 16 h, 300 µM (PAMPA-BBB model; PAMPA, pH 7.4) | CC50 at 48 h [3] | Papp at 16 h, 300 µM ([4]; PAMPA) | mitochondrial membrane potential (T. cruzi trypomastigotes [5]) | IC50 [6, 10] | IC50 [7, 11] | ROS generation (T. cruzi trypomastigotes [8]) | ROS levels (T. cruzi trypomastigotes [8]) | Papp at 16 h, 300 µM (PAMPA-BBB model; [12]) | fraction unbound at 16 h, 300 µM [9] | Papp at 16 h, 300 µM [4, 13] | IC50 [6] | IC50 ([7]; 24 h) |
| --- | --- | --- | --- | --- | --- | --- | --- | --- | --- | --- | --- | --- | --- | --- | --- |
| C=CCc1cc([C@H]2Oc3c(OC)cc(/C=C/C)cc3[C@@H]2C)cc(OC)c1O [1d, 2-allyl-6-methoxy-4-[(2S,3 S)-7-methoxy-3-methyl-5-[(E)-prop-1-enyl]-2,3-dihydrobenzofuran-2-yl]phenol] | no changes in the fluorescence levels | increased ATP production | 0.28 ×10⁻⁶ cm/s | 45.5 ± 16.7 µM | 0.38 ×10⁻⁶ cm/s | induced hyperpolarization of mitochondrial membrane potential; also recorded: mitochondrial hyperpolarization, but with no statistical significance | > 100 µM | 5 ± 0.8 µM | increased the reactive oxygen species (ROS) levels; also recorded: increased ROS generation | drop of the levels |  |  |  |  |  |
| C/C=C/c1cc(OC)c2c(c1)[C@H](C)[C@@H](c1cc(OC)c3oc(C)cc3c1)O2 [1e, 7-methoxy-5-[(2 S,3 S)-7-methoxy-3-methyl-5-[(E)-prop-1-enyl]-2,3-dihydrobenzofuran-2-yl]-2-methyl-benzofuran] | exception of 1e after 120 min | no significant alterations in ATP levels | 0.23 ×10⁻⁶ cm/s | > 200 µM | 0.55 ×10⁻⁶ cm/s | induced hyperpolarization of mitochondrial membrane potential; also recorded: mitochondrial hyperpolarization, but with no statistical significance | > 100 µM | 10.5 ± 5.7 µM | increased the reactive oxygen species (ROS) levels; also recorded: increased ROS generation | drop of the levels |  |  |  |  |  |
| COc1ccc(C=O)cc1OC [2a, 3,4-dimethoxybenzaldehyde] |  |  |  | > 200 µM |  |  |  |  |  |  | 7 ×10⁻⁶ cm/s | < 0.1 | 20.7 ×10⁻⁶ cm/s | > 100 µM | > 100 µM |
| COc1cc(CO)ccc1OC(C)=O [3b, [4-(hydroxymethyl)-2-methoxy-phenyl] acetate] | no changes in the fluorescence levels | increased ATP production | 3.67 ×10⁻⁶ cm/s | 45.8 ± 14.9 µM | 5.07 ×10⁻⁶ cm/s | mitochondrial hyperpolarization, but with no statistical significance | > 100 µM | 5.1 ± 0.7 µM | increased ROS generation | drop of the levels |  |  |  |  |  |
| C/C=C/c1ccc(OC)c(OC)c1 [4a, 1,2-dimethoxy-4-[(E)-prop-1-enyl]benzene] | no changes in the fluorescence levels | increased ATP production |  | > 200 µM |  |  |  |  | increased the reactive oxygen species (ROS) levels; also recorded: increased ROS generation | drop of the levels | 1.29 ×10⁻⁶ cm/s | < 0.1 | 15.9 ×10⁻⁶ cm/s | > 100 µM | 8.8 ± 2 µM |
| C=CCc1ccc(O)c(OC)c1 [compound 5, eugenol] |  |  |  | > 200 µM |  |  |  |  |  |  | 3.98 ×10⁻⁶ cm/s | < 0.1 | 14.4 ×10⁻⁶ cm/s | > 100 µM | > 100 µM |
